Consider 13 molecules from patent US8481586B2, “Pyrrolo[2,3-a] carbazoles and use thereof as PIM kinase inhibitors” (Centre National de la Recherche Scientifique, priority 2008, dated 2013).

Common to all, as to type: biochemical
For one assay, the target named is PIM-2 (Homo sapiens (Human), UniProt Q9P1W9). Briefly: inhibition test on kinase PIM-2 (residual activity, IC50). Particulars: product at 10 μmol/L, Table 2, N.I. = not inhibitory; for remaining activity at 10 µM: read-out: Percentage of residual activity PIM-2. The text has this:
(§1) MKK1, ERK 1, ERK 2, JNK1, JNK2, JNK3, p38a MAPK, p38b MAPK, p38g MAPK, p38s MAPK, ERK8, RSK1, RSK2, PDK1, PKBa, PKBb, SGK1, S6K1, PKA, ROCK2, PRK2, PKCa, PKC zeta, PKD1, MSK1, MNK1, MNK2, MAPKAP-K2, MAPKAP-K3, PRAK, CAMKKa, CAMKKb, CAMK1, SmMLCK, PHK, CHK1, CHK2, GSK3b, CDK2/cyclin A, PLK1, PLK1 (Okadaic acid), Aurora B, Aurora C, AMPK, MARK3, BRSK2, MELK, CK1, CK2, NEK2a, NEK6, NEK7, IKKb, PIM-1, PIM-2, PIM-3, SRPK1, MST2, EF2K, HIPK2, HIPK3, PAK-4, PAK5, PAK6, Src, Lck, CSK.
(§2) The results in terms of residual activity of the kinases after being placed in contact with the compounds of Examples 2, 3 and 5, at a concentration of 10 μM (10 μmol/L), are shown in Table 1 below.
(§3) The higher the residual activity of the kinase tested, the lower the inhibitory activity of the test compounds on the tested kinase.
(§4) The compounds according to the invention were then tested on the kinases PIM-1, PIM-2 and PIM-3.
(§5) The results in terms of percentage of residual activity after placing the compounds according to the invention in contact with each of the kinases PIM-1, PIM-2 and PIM-3 are given in Table 2 below.
(§6) The higher the residual activity, the lower the inhibitory activity of the test compounds.
(§7) The mean inhibitory concentrations (IC50) of certain preferred compounds of the invention were determined in the following manner: the IC50 values were measured after performing the inhibition tests on the kinases PIM-1, PIM-2 and PIM-3 at ten different concentrations for each test compound, and the IC50 value was determined from the dose-inhibition curves obtained.

The next assay addresses PIM-1 (Homo sapiens (Human), UniProt P11309). Briefly: inhibition test on kinase PIM-1 (residual activity, IC50). Particulars: product at 10 μmol/L, Table 2, N.I. = not inhibitory; for remaining activity at 10 µM: read-out: Percentage of residual activity PIM-1.
Description: as §1, §2, §3, §4, §5, §6, §7

The next assay concerns the target PIM-3 (Homo sapiens (Human), UniProt Q86V86). Briefly: inhibition test on kinase PIM-3 (residual activity, IC50). To be noted: product at 10 μmol/L; Table 2; N.I. = not inhibitory; read-out: Percentage of residual activity PIM-3.
Description: as §1, §2, §3, §4, §5, §6, §7

Structures are written as SMILES.

Chain of PIM-1 (P11309 whole entry, species assumed): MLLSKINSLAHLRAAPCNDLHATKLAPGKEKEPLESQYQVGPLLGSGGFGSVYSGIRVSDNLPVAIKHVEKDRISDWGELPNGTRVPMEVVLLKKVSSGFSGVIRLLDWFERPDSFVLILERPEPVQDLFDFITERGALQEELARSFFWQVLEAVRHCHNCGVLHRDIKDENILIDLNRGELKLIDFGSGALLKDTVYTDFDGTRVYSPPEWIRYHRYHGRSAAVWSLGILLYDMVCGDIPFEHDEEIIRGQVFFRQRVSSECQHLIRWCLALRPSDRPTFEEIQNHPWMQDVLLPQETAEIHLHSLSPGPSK
Chain of PIM-2 (Q9P1W9 whole entry, species assumed): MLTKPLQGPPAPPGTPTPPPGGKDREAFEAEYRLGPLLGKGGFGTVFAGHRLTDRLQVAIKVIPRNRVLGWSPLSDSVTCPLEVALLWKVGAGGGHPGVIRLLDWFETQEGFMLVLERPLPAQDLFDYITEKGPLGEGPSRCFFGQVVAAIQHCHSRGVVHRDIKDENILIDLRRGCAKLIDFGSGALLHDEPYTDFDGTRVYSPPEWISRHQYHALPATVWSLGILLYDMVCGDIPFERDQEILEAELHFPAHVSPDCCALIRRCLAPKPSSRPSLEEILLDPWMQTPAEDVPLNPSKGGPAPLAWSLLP

Turning to `COc1cccc(-c2ccc3[nH]c4c(ccc5cc[nH]c54)c3c2)c1` [Example 18, 7-(3-methoxyphenyl)-1,10-dihydropyrrolo[2,3-a]-carbazole], the results for the remaining activity at 10 µM at PIM-2, at PIM-1 and at PIM-3 were 51%, 46% and 39%, respectively.
The matching figures for `Brc1ccc2c(c1)[nH]c1c2ccc2cc[nH]c21` [Example 25, 8-bromo-1,10-dihydropyrrolo[2,3-a]carbazole]: 93%, 74% and 15%.
The matching figures for `Brc1cccc2[nH]c3c(ccc4cc[nH]c43)c12` [Example 26, 6-bromo-1,10-dihydropyrrolo[2,3-a]carbazole]: 37%, 8% and 11%.
In the case of `Brc1cccc2c1[nH]c1c2ccc2cc[nH]c21` [Example 27, 9-bromo-1,10-dihydropyrrolo[2,3-a]carbazole], the “Percentage of residual activity PIM-2” value at PIM-2 was “N.I”. The remaining activity at 10 µM amounted to 90% on PIM-1 and 43% on PIM-3.
Consider `Fc1ccc2[nH]c3c(ccc4cc[nH]c43)c2c1` [Example 28, 7-fluoro-1,10-dihydropyrrolo[2,3-a]carbazole], for which the remaining activity at 10 µM at PIM-2 worked out at 84%; on PIM-1 it was 35%; on PIM-3 it was 20%.
Take `Fc1cccc2c1[nH]c1c2ccc2cc[nH]c21` [Example 29, 9-fluoro-1,10-dihydropyrrolo[2,3-a]carbazole]: the “Percentage of residual activity PIM-2” value at PIM-2 is “N.I”. For the same molecule, the “Percentage of residual activity PIM-1” value on PIM-1 is “N.I”. Also, the remaining activity at 10 µM on PIM-3 was determined as 43%.
As for `Clc1cc(Cl)c2c(c1)[nH]c1c2ccc2cc[nH]c21` [Example 30, 6,8-dichloro-1,10-dihydropyrrolo[2,3-a]carbazole], the remaining activity at 10 µM at PIM-2 amounted to 36%; at PIM-1, 10%; at PIM-3, 14%.
With `N#Cc1ccc2[nH]c3c(ccc4cc[nH]c43)c2c1` [Example 31, 1,10-dihydropyrrolo[2,3-a]carbazole-7-carbonitrile], the remaining activity at 10 µM on PIM-2 came to 26%; at PIM-1, 9%; on PIM-3 it was 4%.
The corresponding values for `O=[N+]([O-])c1ccc2[nH]c3c(ccc4cc[nH]c43)c2c1` [Example 32, 7-nitro-1,10-dihydropyrrolo[2,3-a]carbazole] are 23%, 9% and 11%.
The matching figures for `CCc1cccc2c1[nH]c1c2ccc2cc[nH]c21` [Example 33, 9-ethyl-1,10-dihydropyrrolo[2,3-a]carbazole]: 96%, 28% and 23%.
As for `FC(F)(F)c1cccc2c1[nH]c1c2ccc2cc[nH]c21` [Example 34, 9-(trifluoromethyl)-1,10-dihydropyrrolo[2,3-a]carbazole], on PIM-2, the “Percentage of residual activity PIM-2” value is “N.I”. The remaining activity at 10 µM on PIM-1 is 85%; at PIM-3, 45%.
The corresponding values for `Cc1ccc2c(c1)[nH]c1c2ccc2cc[nH]c21` [Example 35, 8-methyl-1:10-dihydropyrrolo[2,3-a]carbazole] are “N.I”, 81% and 13%.
Take `COc1cccc(-c2ccc3[nH]c4c(ccc5c(C=O)c[nH]c54)c3c2)c1` [Example 36, 7-(3-methoxyphenyl)-1,10-dihydropyrrolo[2,3-a]-carbazole-3-carbaldehyde]: the remaining activity at 10 µM on PIM-2 stood at 31%; at PIM-1 it was 17%; at PIM-3 it was 12%.
